# Measurements reported in patent US12509469B2, “Compositions and methods for the treatment of pain and dependence disorders” (Ripple Therapeutics Corporation, priority 2019, dated 2025).
# What was measured:
# [1] = Heat processing of compounds: pellet formation by heat molding; format: physicochemical; settings: for Pellet formation by heat molding (result in words): heat molding 10° C. to 30° C. above thermal transition, pressed into cylindrical mold; for Pellet formation?: heat molding, cylindrical mold ~1 mm in height x 1 mm in diameter
# Method: Compounds were formed into pellets by heat molding. Powders of Compound 1-7 and Compounds 9-12 were processed at a temperature from between about 10° C. to 30° C. above their thermal transitions (e.g., glass transition temperature (Tg) for amorphous powders or melting point (Tm) for crystalline powders) of the given compound (e.g., from about 70° C. (Compound 9) to about 220° C. (Compound 2)), and pressed into a cylindrical mold of ˜1 mm in height×1 mm in diameter. Light microscopy was used to capture images of the heat-formed pellets.
# These pellets had the appropriate processing properties to be tested as articles for drug delivery applications.
# Compounds 16, 22, and 23 were also tested for pellet formation using a similar method as compounds 1-7 and 9-12. […] The recovered form was soft and tacky and could not be easily handled.
# [2] = Drug release from heat-molded pellets in phosphate buffered saline (PBS); format: physicochemical; settings: heat-molded pellet, 37° C., agitation at 115 rpm, HPLC
# Method: (§1) Drug release from heat-molded pellets of Compound 1 (FIG. 1A) was assessed in phosphate buffered saline (PBS). Heat-molded pellets (FIG. 1B) were placed in 20 ml glass vials and 2 ml of release buffer was added. Samples were incubated at 37° C. with constant agitation at 115 rpm. Release buffer was sampled and fully replaced with 2 ml of fresh buffer daily with the exception of days 5, 6, 12, 13, and 14 (FIG. 1C). Samples were analyzed by high performance liquid chromatography (HPLC) to quantify drug products (FIG. 1D). Cumulative release was calculated as a percentage of total mass of starting pellets and was plotted over time.
# as §1, with “3-7 and Compound 9-12 were” for “1 (FIG. 1A) was”, “pellets” for “pellets (FIG. 1B)”, “on” for “daily with the exception of”, “1, 3, 7, 10,” for “5, 6, 12, 13,”, “14.” for “14 (FIG. 1C).”, “products.” for “products (FIG. 1D).”
SMILES,Pellet formation by heat molding (result in words) [1],Release in phosphate buffered saline (PBS): near zero order for [2],Pellet formation? [1]
"O=C(Oc1ccc2c3c1O[C@H]1C(=O)CC[C@@]4(O)[C@@H](C2)N(CC2CC2)CC[C@]314)c1ccc(C(=O)Oc2ccc3c4c2O[C@H]2C(=O)CC[C@@]5(O)[C@@H](C3)N(CC3CC3)CC[C@]425)cc1 [Compound 8, bis((4R,4aS,7aR,12bS)-3-(cyclopropylmethyl)-4a-hydroxy-7-oxo-2,3,4,4a,5,6,7,7a-octahydro-1H-4,12-methanobenzofuro[3,2-e]isoquinolin-9-yl) terephthalate]",did not form a heat processed pellet,–,–
"O=C(OCC1CCC(COC(=O)Oc2ccc3c4c2O[C@H]2C(=O)CC[C@@]5(O)[C@@H](C3)N(CC3CC3)CC[C@]425)CC1)Oc1ccc2c3c1O[C@H]1C(=O)CC[C@@]4(O)[C@@H](C2)N(CC2CC2)CC[C@]314 (stereo partly drawn) [Compound 12, cyclohexane-1,4-diylbis(methylene) bis((4R,4aS,7aR,12bS)-3-(cyclopropylmethyl)-4a-hydroxy-7-oxo-2,3,4,4a,5,6,7,7a-octohydro-1H-4,12-methanobenzofuro[3,2-e]isoquinolin-9-yl) bis(carbonate)]",–,Near zero order for > 7 days,–
"O=C(Oc1ccc2c3c1O[C@H]1C(=O)CC[C@@]4(O)[C@@H](C2)N(CC2CC2)CC[C@]314)C1CCC(C(=O)Oc2ccc3c4c2O[C@H]2C(=O)CC[C@@]5(O)[C@@H](C3)N(CC3CC3)CC[C@]425)CC1 (stereo partly drawn) [Compound 7, bis((4R,4aS,7aR,12bS)-3-(cyclopropylmethyl)-4a-hydroxy-7-oxo-2,3,4,4a,5,6,7,7a-octahydro-1H-4,12-methanobenzofuro[3,2-e]isoquinolin-9-yl) cyclohexane-1,4-dicarboxylate]",–,Near zero order for > 7 days,–
"C=CCN1CC[C@]23c4c5ccc(OC(=O)CCCCC(=O)Oc6ccc7c8c6O[C@H]6C(=O)CC[C@@]9(O)[C@@H](C7)N(CC=C)CC[C@]869)c4O[C@H]2C(=O)CC[C@@]3(O)[C@H]1C5 [Compound 1, bis((4R,4aS,7aR,12bS)-3-allyl-4a-hydroxy-7-oxo-2,3,4,4a,5,6,7,7a-octahydro-1H-4,12-methanobenzofuro[3,2-e]isoquinolin-9-yl) adipate]",–,Near zero order for > 7 days,✓ (FIG. 1B)
"O=C(CCCCC(=O)Oc1ccc2c3c1O[C@H]1C(=O)CC[C@@]4(O)[C@@H](C2)N(CC2CC2)CC[C@]314)Oc1ccc2c3c1O[C@H]1C(=O)CC[C@@]4(O)[C@@H](C2)N(CC2CC2)CC[C@]314 [Compound 2, bis((4R,4aS,7aR,12bS)-3-(cyclopropylmethyl)-4a-hydroxy-7-oxo-2,3,4,4a,5,6,7,7a-octahydro-1H-4,12-methanobenzofuro[3,2-e]isoquinolin-9-yl) adipate]",didn't form a viscous liquid that could be pressed into a pellet,–,–
"C=CCN1CC[C@]23c4c5ccc(OC(=O)CCCCCCCCC(=O)Oc6ccc7c8c6O[C@H]6C(=O)CC[C@@]9(O)[C@@H](C7)N(CC=C)CC[C@]869)c4O[C@H]2C(=O)CC[C@@]3(O)[C@H]1C5 [Compound 4, bis((4R,4aS,7aR,12bS)-3-allyl-4a-hydroxy-7-oxo-2,3,4,4a,5,6,7,7a-octahydro-1H-4,12-methanobenzofuro[3,2-e]isoquinolin-9-yl) decanedioate]",–,Near zero order for > 7 days,✓ (FIG. 5B)
"CCC(C)(CC(=O)Oc1ccc2c3c1O[C@H]1C(=O)CC[C@@]4(O)[C@@H](C2)N(CC2CC2)CC[C@]314)CC(=O)Oc1ccc2c3c1O[C@H]1C(=O)CC[C@@]4(O)[C@@H](C2)N(CC2CC2)CC[C@]314 [Compound 10, bis((4R,4aS,7aR,12bS)-3-(cyclopropylmethyl)-4a-hydroxy-7-oxo-2,3,4,4a,5,6,7,7a-octohydro-1H-4,12-methanobenzofuro[3,2-e]isoquinolin-9-yl) 3-ethyl-3-methylpentonedioate]",–,Near zero order for > 7 days,✓ (FIG. 11B)
"O=C(OCCCCCCOC(=O)Oc1ccc2c3c1O[C@H]1C(=O)CC[C@@]4(O)[C@@H](C2)N(CC2CC2)CC[C@]314)Oc1ccc2c3c1O[C@H]1C(=O)CC[C@@]4(O)[C@@H](C2)N(CC2CC2)CC[C@]314 [Compound 11, bis((4R,4aS,7aR,12bS)-3-(cyclopropylmethyl)-4a-hydroxy-7-oxo-2,3,4,4a,5,6,7,7a-octohydro-1H-4,12-methanobenzofuro[3,2-e]isoquinolin-9-yl) hexane-1,6-diyl bis(carbonate)]",–,Near zero order for > 7 days,✓ (FIG. 12B)
"O=C(CCCCCCCCCCCCC(=O)Oc1ccc2c3c1O[C@H]1C(=O)CC[C@@]4(O)[C@@H](C2)N(CC2CC2)CC[C@]314)Oc1ccc2c3c1O[C@H]1C(=O)CC[C@@]4(O)[C@@H](C2)N(CC2CC2)CC[C@]314 [Compound 9, bis((4R,4aS,7aR,12bS)-3-(cyclopropylmethyl)-4a-hydroxy-7-oxo-2,3,4,4a,5,6,7,7a-octahydro-1H-4,12-methanobenzofuro[3,2-e]isoquinolin-9-yl) tetradecanedioate]",–,Near zero order for > 7 days,✓ (FIG. 10B)
"O=C(CCCCCCCCC(=O)Oc1ccc2c3c1O[C@H]1C(=O)CC[C@@]4(O)[C@@H](C2)N(CC2CC2)CC[C@]314)Oc1ccc2c3c1O[C@H]1C(=O)CC[C@@]4(O)[C@@H](C2)N(CC2CC2)CC[C@]314 [Compound 6, bis((4R,4aS,7aR,12bS)-3-(cyclopropylmethyl)-4a-hydroxy-7-oxo-2,3,4,4a,5,6,7,7a-octahydro-1H-4,12-methanobenzofuro[3,2-e]isoquinolin-9-yl) decanedioate]",–,Near zero order for > 7 days,✓ (FIG. 7B)
"COc1ccc2cc([C@H](C)C(=O)OCC3CCC(COC(=O)[C@@H](C)c4ccc5cc(OC)ccc5c4)CC3)ccc2c1 (stereo partly drawn) [Compound 16, cyclohexane-1,4-diylbis(methylene) (2S,2S)-bis(2-(6-methoxynaphthalen-2-yl)proponoote)]",deformed during the process of removal from the mold,–,–
"C=CCN1CC[C@]23c4c5ccc(OC(=O)OCC6CCC(COC(=O)Oc7ccc8c9c7O[C@H]7C(=O)CC[C@@]%10(O)[C@@H](C8)N(CC=C)CC[C@]97%10)CC6)c4O[C@H]2C(=O)CC[C@@]3(O)[C@H]1C5 (stereo partly drawn) [Compound 5, bis((4R,4aS,7aR,12bS)-3-allyl-4a-hydroxy-7-oxo-2,3,4,4a,5,6,7,7a-octahydro-1H-4,12-methanobenzofuro[3,2-e]isoquinolin-9-yl) (cyclohexane-1,4-diylbis(methylene)) bis(carbonate)]",–,Near zero order for > 7 days,–
"C=C1CC[C@@]2(O)[C@H]3Cc4ccc(OC(=O)CCCCC(=O)Oc5ccc6c7c5O[C@H]5C(=C)CC[C@@]8(O)[C@@H](C6)N(CC6CC6)CC[C@]758)c5c4[C@@]2(CCN3CC2CC2)[C@H]1O5 [Compound 3, bis((4R,4aS,7aS,12bS)-3-(cyclopropylmethyl)-4a-hydroxy-7-methylene-2,3,4,4a,5,6,7,7a-octohydro-1H-4,12-methanobenzofuro[3,2-e]isoquinolin-9-yl) adipate]",–,Near zero order for > 7 days,✓ (FIG. 4B)
"CCN[C@H]1C[C@H](C)S(=O)(=O)c2sc(S(=O)(=O)NC(=O)OCCCCCCCCOC(=O)NS(=O)(=O)c3cc4c(s3)S(=O)(=O)[C@@H](C)C[C@@H]4NCC)cc21 [Compound 22, 8-(((((4S,6S)-4-(ethylamino)-6-methyl-7,7-dioxido-5,6-dihydro-4H-thieno[2,3-b]thiopyron-2-yl)sulfonyl)carbamoyl)oxy)octyl (((4S,6S)-4-(ethylamino)-6-methyl-7,7-dioxido-5,6-dihydro-4H-thieno[2,3-b]thiopyron-2-yl)sulfonyl)carbomate]",Neither compound formed a viscous liquid that could be pressed into a pellet,–,–
